The text below walks through data of patent US20040002447A1, “Induction of insulin expression” (REGENTS OF THE UNIVERSITY OF CALIFORNIA, priority 2002, published 2004).

The test system of assay [1] is somatostatin gene expression in TRM-6/PDX-1 cells. Description: Somatostatin mRNA expression by RT-PCR in monolayer TRM-6/PDX-1 cells. Format: cell-based, human. The following applies: approximately 24 hours; for somatastatin mRNA expression (effect in words): TRM-6 cells expressing PDX-1, monolayer cultures. The procedure: The cells were incubated with the inhibitor for approximately 24 hours and then expression of somatastatin expression was measured with RT-PCR. As little as 66 nM TSA lead to an increase in somatastatin induction, with a maximal induction at 6.6. μM of TSA.

The test system of assay [2] is insulin gene expression in TRM-6/PDX-1/NeuroD1 cells. Description: Insulin mRNA expression by RT-PCR in monolayer TRM-6/PDX-1/NeuroD1 cells. It counts as cell-based, human. The procedure:
FIG. 1 illustrates induction of insulin expression resulting from treatment with trichostatin A (TSA). Insulin mRNA was analyzed by RT-PCR. RT-PCR for the housekeeping gene porphobilinogen deaminase was performed to ensure that equal amounts of cDNA were used. The experiment has been repeated three times and the figure shown here is representative.
Monolayer cultures of TRM-6/PDX-1 also expressing the transcription factor NeuroD 1 (BETA2) express low levels of insulin gene expression.

In assay [3] the test system is insulin promoter (CAT reporter) in HeLa cells. The assay is described as follows: Insulin promoter CAT reporter activity in HeLa cells transformed with PDX-1. Format: cell-based. Particulars: HeLa cells transformed with PDX-1 and insulin promoter-CAT plasmid (FIG. 2). The procedure:
FIG. 2 is a bar graph illustrating expression of an insulin promoter in HeLa cells transformed with PDX-1. The graph illustrates differences in expression from the insulin promoter in the presence or absence of the histone deacetylase inhibitor TSA. Insulin promoter activity was determined based on expression of chloramphenicol acetyl transferase (CAT) reporter activity.
In addition, expression of an insulin promoter in HeLa cells was tested for the effect of the histone deacetylase inhibitor TSA on insulin expression. HeLa cells were transformed with PDX-1 and a plasmid comprising a portion of the insulin promoter operably linked to the chloramphenicol acetyl transferase (CAT) reporter gene. The effect of TSA and PDX-1 on insulin expression was then tested. As FIG. 2 illustrates, cells contacted with TSA had approximately 14 times the expression of cells not contacted with TSA.

As for `CC(/C=C/C(=O)NO)=C\[C@@H](C)C(=O)c1ccc(N(C)C)cc1` [TSA, trichostatin A], in assay [1] (TRM-6/PDX-1 monolayer), the “concentration giving maximal somatastatin induction” value stood at 6.6 µM and the “lowest TSA concentration leading to an increase in somatastatin induction” value amounted to 66 nM. In addition, in assay [1], the “somatastatin mRNA expression (effect in words)” value is “bypassed the need for cell-cell contact to achieve high levels of somatostatin gene expression”. The “somatastatin mRNA expression (effect in words)” value in assay [1] (listed as trichostatin A) is recorded as “induced somatastatin mRNA expression”. In assay [2] (3.3 μM for 24 hours, TRM-6/PDX-1/NeuroD1 monolayer, RT-PCR (FIG. 1)), the “insulin expression (effect in words)” value is “greatly increases insulin expression”. The “insulin gene expression in TRM-6 cells (summary statement)” value in assay [2] (TRM-6 cells) is listed as “induced insulin gene expression”. In assay [3], the “insulin promoter expression relative to cells not contacted with TSA” value is reported as “approximately 14 times”.
